Experiments:
[1] = tested on: HDACs (HeLa cell nuclear extracts); assay: HDAC enzymatic activity, Biomol Color de Lys system; type: biochemical; details: 1 hour, 25° C.
Protocol: (E) an In Vitro Assay which Determines the Ability of a Test Compound to Inhibit HDAC Enzymatic Activity.
HDAC inhibitory activity was assessed using the Biomol Color de Lys system (AK-500, Biomol, Plymouth Meeting, Pa.). Briefly, HeLa cell nuclear extracts were used as a source of HDACs. Different concentrations of test compounds were serially diluted in dimethylsulphoxide (DMSO) and added to HeLa cell nuclear extracts in the presence of a colorimetric artificial substrate. Final assay condition contained 50 mM Tris/Cl, pH 8.0, 137 mM NaCl, 2.7 mM KCl and 1 mM MgCl2. Reactions were carried in room temperature (25° C.) for 1 hour before addition of developer for termination. Relative enzyme activity was measured in the WALLAC Victor II 1420 microplate reader as fluorescence intensity (excitation: 350-380 nm; emission: 440-460 nm). Data were analyzed using GraphPad Prism (v4.0a) with a sigmoidal dose response curve fitting for IC50 calculation.

[2] = molecular target: T1, PI3Kα (p110α/p85α) (Homo sapiens, UniProt P42336); assay: PI3Kα ADP-Glo assay; type: biochemical; details: 20 μM PIP2, 10 μM ATP, 30 minutes
T1 construct: GST (N); made in house; host or cells: Baculovirus-infected Sf9 cells
Protocol: (A) an In Vitro Assay which Determines the Ability of a Test Compound to Inhibit PI3Kα.
Activity of PI3Kα was measured using ADP-Glo assay from Promega. PI3Kα, a complex of N-terminal GST-tagged recombinant full-length human p110α (GenBank, Accession No. U79143) and N-terminal His tagged recombinant full length human p85a (GenBank Accession No. XM—043865) were co-expressed in a Baculovirus infected Sf9 cell expression system. The ADP-Glo assay was performed to measure the amount of ADP generated from ATP hydrolysis coupled with PIP2 phosphorylation by the purified recombinant PI3Kα (p110α/p85α). PI3Kα was incubated with 20 μM PIP2 substrate in the reaction buffer (50 mM HEPES, pH 7.4, 150 mM NaCl, 5 mM MgCl2, 1 mM DTT, 3 uM Naorthovanadate, 10 μM ATP and 0.5% DMSO) for 30 minutes at room temperature. The ADP generated was then detected by ADP-Glo assay from Promega, a luminescent ADP detection assay. The ADP-Glo assay is performed in two steps; first, after the kinase reaction, ADP-Glo Reagent is added to terminate the kinase reaction and deplete the remaining ATP. Second, the Kinase Detection Reagent is added to simultaneously convert ADP to ATP and allow the newly synthesized ATP to be measured using a luciferase/luciferin reaction.

T1 sequence (P42336 whole entry): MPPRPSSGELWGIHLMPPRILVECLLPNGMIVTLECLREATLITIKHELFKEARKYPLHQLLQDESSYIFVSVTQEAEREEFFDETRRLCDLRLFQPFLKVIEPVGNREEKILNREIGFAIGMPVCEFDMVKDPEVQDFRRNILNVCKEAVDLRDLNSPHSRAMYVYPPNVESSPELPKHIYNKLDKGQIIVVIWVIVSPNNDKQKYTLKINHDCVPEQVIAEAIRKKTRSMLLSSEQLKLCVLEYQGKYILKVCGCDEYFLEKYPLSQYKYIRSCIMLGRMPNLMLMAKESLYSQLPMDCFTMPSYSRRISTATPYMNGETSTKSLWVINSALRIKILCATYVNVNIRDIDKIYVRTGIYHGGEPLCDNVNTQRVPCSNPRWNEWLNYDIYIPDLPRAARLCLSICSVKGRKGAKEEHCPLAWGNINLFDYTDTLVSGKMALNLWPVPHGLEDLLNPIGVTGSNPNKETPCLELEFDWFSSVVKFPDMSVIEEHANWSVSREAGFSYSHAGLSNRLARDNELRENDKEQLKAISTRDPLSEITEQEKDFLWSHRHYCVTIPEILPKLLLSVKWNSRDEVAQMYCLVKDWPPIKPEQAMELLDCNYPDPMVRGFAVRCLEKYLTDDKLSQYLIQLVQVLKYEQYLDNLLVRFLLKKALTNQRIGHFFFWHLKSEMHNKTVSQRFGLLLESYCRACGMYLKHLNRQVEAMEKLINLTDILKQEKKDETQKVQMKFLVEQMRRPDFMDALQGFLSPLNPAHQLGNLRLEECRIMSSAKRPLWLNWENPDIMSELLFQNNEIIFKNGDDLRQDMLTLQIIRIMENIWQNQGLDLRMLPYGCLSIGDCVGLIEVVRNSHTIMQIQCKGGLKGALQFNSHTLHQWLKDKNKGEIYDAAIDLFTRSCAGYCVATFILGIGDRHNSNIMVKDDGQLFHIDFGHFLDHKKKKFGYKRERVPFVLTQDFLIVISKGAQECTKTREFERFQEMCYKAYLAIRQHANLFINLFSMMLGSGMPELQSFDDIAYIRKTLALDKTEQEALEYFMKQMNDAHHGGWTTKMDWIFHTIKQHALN
T1 sequence (P27986 whole entry partner): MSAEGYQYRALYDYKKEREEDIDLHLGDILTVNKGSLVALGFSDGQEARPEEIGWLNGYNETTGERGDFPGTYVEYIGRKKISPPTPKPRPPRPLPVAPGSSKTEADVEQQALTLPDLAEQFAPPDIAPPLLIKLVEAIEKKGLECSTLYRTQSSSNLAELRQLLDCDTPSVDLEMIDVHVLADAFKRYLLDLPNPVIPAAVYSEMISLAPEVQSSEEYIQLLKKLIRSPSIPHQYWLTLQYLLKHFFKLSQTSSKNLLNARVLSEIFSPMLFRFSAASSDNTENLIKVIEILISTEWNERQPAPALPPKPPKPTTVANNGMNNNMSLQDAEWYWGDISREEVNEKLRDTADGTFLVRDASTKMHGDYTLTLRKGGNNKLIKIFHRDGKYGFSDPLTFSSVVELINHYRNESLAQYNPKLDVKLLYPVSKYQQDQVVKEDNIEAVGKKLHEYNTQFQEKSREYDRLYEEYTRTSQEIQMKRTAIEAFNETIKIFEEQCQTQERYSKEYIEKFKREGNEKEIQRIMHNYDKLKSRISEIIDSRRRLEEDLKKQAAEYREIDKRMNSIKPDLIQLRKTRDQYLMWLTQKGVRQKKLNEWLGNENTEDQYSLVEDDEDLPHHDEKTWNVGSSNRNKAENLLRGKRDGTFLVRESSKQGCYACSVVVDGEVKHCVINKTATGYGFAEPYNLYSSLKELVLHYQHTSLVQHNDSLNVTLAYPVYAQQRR

Row | SMILES | IC50 [1] [nM] | IC50 [2] [nM]
1 | O=C(NO)c1ccc(CNCc2cc3nc(-c4cccc5[nH]ncc45)nc(N4CCOCC4)c3s2)cc1 [Compound 203] | 100 to 1000 | 100 to 1000
2 | COCCNc1nc(-c2cccc3[nH]ncc23)nc2cc(CN(C)c3ncc(C(=O)NO)cn3)sc12 [Compound 160] | < 100 | > 10000
3 | CCCc1nc2cc(/C=C/C(=O)NO)ccc2n1CCN(C)Cc1cc2nc(-c3ccc(N)cc3)nc(N3CCOCC3)c2s1 [Compound 324] | 100 to 1000 | 100 to 1000
4 | COCCN(CCOC)c1nc(-c2cccc3[nH]ncc23)nc2cc(CN(C)c3ncc(C(=O)NO)cn3)sc12 [Compound 163] | < 100 | 100 to 1000
5 | CC(=O)N1CCN(c2nc(-c3cccc4[nH]ncc34)nc3cc(CN(C)c4ncc(C(=O)NO)cn4)sc23)CC1 [Compound 62] | < 100 | > 10000
6 | Nc1ccc(-c2nc(N3CCOCC3)c3sc(CN(CCO)c4ncc(C(=O)NO)cn4)cc3n2)cc1F [Compound 277] | < 100 | < 100
7 | CN(CC1CCN(c2ncc(C(=O)NO)cn2)CC1)c1cc2nc(-c3cccc4[nH]ncc34)nc(N3CCOCC3)c2s1 [Compound 49] | 100 to 1000 | < 100
8 | CN(Cc1cc2nc(-c3ccc(OCc4ccccc4)nc3)nc(N3CCOCC3)c2s1)c1ncc(C(=O)NO)cn1 [Compound 260] | < 100 | > 10000
9 | CS(=O)(=O)N1CCN(Cc2cc3nc(-c4cccc5c4cnn5CCCCCCC(=O)NO)nc(N4CCOCC4)c3s2)CC1 [Compound 5, N-hydroxy-7-(4-(6-((4-(methylsulfonyl)piperazin-1-yl)methyl)-4-morpholinothieno[3,2-d]pyrimidin-2-yl)-1H-indazol-1-yl)heptanamide] | < 100 | > 10000
10 | COc1ccccc1Nc1nc(-c2cccc3[nH]ncc23)nc2cc(CN(C)c3ncc(C(=O)NO)cn3)sc12 [Compound 167] | < 100 | 100 to 1000
11 | C/C(=N/O)c1ccc(F)c(-c2nc(N3CCOCC3)c3sc(CN(C)c4ncc(C(=O)NO)cn4)cc3n2)c1 [Compound 298] | < 100 | 100 to 1000
12 | O=C(/C=C/c1cccc(S(=O)(=O)Nc2cc3nc(-c4cccc5[nH]ncc45)nc(N4CCOCC4)c3s2)c1)NO [Compound 216] | < 100 | < 100
13 | CN(Cc1cc2nc(-c3cccc(NS(C)(=O)=O)c3)nc(N3CCOCC3)c2s1)c1ncc(C(=O)NO)cn1 [Compound 288] | < 100 | > 10000
14 | O=C(NO)c1cnc(N(CCCO)Cc2cc3nc(-c4cccc5[nH]ncc45)nc(N4CCOCC4)c3s2)nc1 [Compound 91] | < 100 | < 100
15 | CS(=O)(=O)N1CCN(Cc2cc3nc(-c4cccc5[nH]ncc45)nc(NCCCCCCC(=O)NO)c3s2)CC1 [Compound 36] |  | > 10000
16 | O=C(NO)c1cc2nc(-c3cccc4[nH]ncc34)nc(N3CCOCC3)c2s1 [Compound 45] | > 10000 | < 100
17 | CN(Cc1cc2nc(-c3ccc4[nH]ccc4c3)nc(N3CCOCC3)c2s1)c1ncc(C(=O)NO)cn1 [Compound 192] | < 100 | 100 to 1000
18 | Cn1c(CNCc2cc3nc(-c4ccc(N)cc4)nc(N4CCOCC4)c3s2)nc2cc(/C=C/C(=O)NO)ccc21 [Compound 326] | 100 to 1000 | 100 to 1000
19 | CC(C)C(=O)Nc1ccc(-c2nc(N3CCOCC3)c3sc(CN(C)c4ncc(C(=O)NO)cn4)cc3n2)cc1 [Compound 286] | < 100 | 100 to 1000
20 | O=C(/C=C/c1cc2nc(-c3cccc4[nH]ncc34)nc(N3CCOCC3)c2s1)NO [Compound 46] | 1000 to 10000 | 100 to 1000
21 | CC1CN(c2nc(-c3cccc4[nH]ncc34)nc3cc(CN(C)c4ncc(C(=O)NO)cn4)sc23)CC(C)O1 (centres unmarked) [Compound 65] | < 100 | 100 to 1000
22 | Nc1ccc(-c2nc(N3CCOCC3)c3sc(Nc4ncc(C(=O)NO)cn4)cc3n2)cc1 [Compound 273] | 100 to 1000 | < 100
23 | CN(Cc1cc2nc(-c3cccc4[nH]ncc34)nc(NCCO)c2s1)c1ncc(C(=O)NO)cn1 [Compound 161] | < 100 | 100 to 1000
24 | CN(Cc1cc2nc(-c3cnc(OCc4ccccc4)nc3)nc(N3CCOCC3)c2s1)c1ncc(C(=O)NO)cn1 [Compound 266] | < 100 | 100 to 1000

Row | SMILES | IC50 [1] [nM] | IC50 [2] [nM]
25 | CC1COCC(C)N1c1nc(-c2cccc3[nH]ncc23)nc2cc(CN(C)c3ncc(C(=O)NO)cn3)sc12 (centres unmarked) [Compound 66] | < 100 | 100 to 1000
26 | O=C(O)CN(Cc1cc2nc(-c3cccc4[nH]ncc34)nc(N3CCOCC3)c2s1)c1ncc(C(=O)NO)cn1 [Compound 88] | 100 to 1000 | < 100
27 | CN(Cc1cc2nc(-c3cccc4[nH]ncc34)nc(N(CCO)CCO)c2s1)c1ncc(C(=O)NO)cn1 [Compound 162] | < 100 | 1000 to 10000
28 | CN(Cc1cc2nc(-c3cccc(CCO)c3)nc(N3CCOCC3)c2s1)c1ncc(C(=O)NO)cn1 [Compound 306] | < 100 | 100 to 1000
29 | CN(C)c1nc(-c2cccc3[nH]ncc23)nc2cc(CN(C)c3ncc(C(=O)NO)cn3)sc12 [Compound 159] | < 100 | 1000 to 10000
30 | CN(Cc1cc2nc(-c3cccc(C(C)(C)O)c3)nc(N3CCOCC3)c2s1)c1ncc(C(=O)NO)cn1 [Compound 302] | < 100 | > 10000
31 | Cc1ncc(-c2nc(N3CCOCC3)c3sc(CN(CCO)c4ncc(C(=O)NO)cn4)cc3n2)s1 [Compound 312] | < 100 | 100 to 1000
32 | CN(Cc1cc2nc(-c3ccc4c(c3)OCCN4)nc(N3CCOCC3)c2s1)c1ncc(C(=O)NO)cn1 [Compound 191] | < 100 | 
33 | CC(C)(Nc1ncc(C(=O)NO)cn1)c1cc2nc(-c3cccc4[nH]ncc34)nc(N3CCOCC3)c2s1 [Compound 71] | < 100 | 100 to 1000
34 | CN(Cc1cc2nc(-c3cccc4[nH]ncc34)nc(N3CCN(CCO)CC3)c2s1)c1ncc(C(=O)NO)cn1 [Compound 63] | < 100 | > 10000
35 | CN(Cc1cc2nc(-c3ccc(N)cc3)nc(N3CCOCC3)c2s1)Cc1nc2cc(/C=C/C(=O)NO)ccc2n1C [Compound 327] | 100 to 1000 | 1000 to 10000
36 | COCCN(Cc1cc2nc(-c3cccc4[nH]ncc34)nc(N3CCOCC3)c2s1)c1ncc(C(=O)NO)cn1 [Compound 90, 2-(((2-(1H-indazol-4-yl)-4-morpholinothieno[3,2-d]pyrimidin-6-yl)methyl)(2-methoxyethyl)amino)-N-hydroxypyrimidine-5-carboxamide] | < 100 | < 100
37 | CN(Cc1cc2nc(-c3ccc4c(c3)CCN4)nc(N3CCOCC3)c2s1)c1ncc(C(=O)NO)cn1 [Compound 193] | < 100 | > 10000
38 | CN1CCN(c2nc(-c3cccc4[nH]ncc34)nc3cc(CN(C)c4ncc(C(=O)NO)cn4)sc23)CC1 [Compound 61] | < 100 | > 10000
39 | CN(Cc1cc2nc(-c3cccc4[nH]c(=O)[nH]c34)nc(N3CCOCC3)c2s1)c1ncc(C(=O)NO)cn1 [Compound 316] |  | < 100
40 | O=C(NO)c1cnc(NCc2cc3cc(-c4cccc5[nH]ncc45)nc(N4CCOCC4)c3s2)nc1 [Compound 73] | < 100 | 100 to 1000
41 | O=C(/C=C/c1ccc(S(=O)(=O)Nc2cc3nc(-c4cccc5[nH]ncc45)nc(N4CCOCC4)c3s2)cc1)NO [Compound 50] | < 100 | < 100
42 | CNc1ccc(-c2nc(N3CCOCC3)c3sc(NS(=O)(=O)c4ccc(/C=C/C(=O)NO)cc4)cc3n2)cn1 [Compound 223] | < 100 | < 100
43 | CCCc1nc2cc(/C=C/C(=O)NO)ccc2n1CCNCc1cc2nc(-c3ccc(NC)nc3)nc(N3CCOCC3)c2s1 [Compound 323] | 100 to 1000 | < 100
44 | CN(Cc1cc2nc(-c3ccc(N)cc3)nc(N3CCOCC3)c2s1)c1ccc(C(=O)NO)cc1 [Compound 206] | < 100 | 100 to 1000
45 | CS(=O)(=O)N1CCN(Cc2cc3nc(-c4cccc5[nH]ncc45)nc(NCCCCCC(=O)NO)c3s2)CC1 [Compound 35] |  | > 10000
46 | CN(c1ncc(C(=O)NO)cn1)C(C)(C)c1cc2nc(-c3ccc(N)cc3)nc(N3CCOCC3)c2s1 [Compound 270] | < 100 | 
47 | CC(c1cc2nc(-c3ccc(N)cc3)nc(N3CCOCC3)c2s1)N(C)c1ncc(C(=O)NO)cn1 (centres unmarked) [Compound 214] | < 100 | 
48 | CS(=O)(=O)N1CCN(Cc2cc3nc(-c4cccc5[nH]ncc45)nc(NCCCCC(=O)NO)c3s2)CC1 [Compound 34] |  | > 10000
